{
  "source": "paper PMC6882484",
  "about": "“Influence of verapamil on the pharmacokinetics of oridonin in rats” (Pharmaceutical Biology, 2019)",
  "key": {"[1]": {"test": "Metabolic stability in rat liver microsomes", "format": "in vitro ADME", "settings": "for microsomal CLint at 1 µM: read-out: intrinsic clearance rate; for half-life at 1 µM: read-out: metabolic half-life (t1/2)", "method": "Rat liver microsomes were used to investigate the effects of verapamil on the metabolism clearance of oridonin, and the assay conditions and reaction mixtures were similar to those reported previously (Wang et al. [2017]; Yan et al. [2017]). In brief, 30 µL rat liver microsome (20 mg/mL), 12 µL oridonin solution (100 µM) and 1113 µL PBS buffer (0.1 M, pH 7.4) were added to the centrifuge tubes on ice. There was a 5 min preincubation step at 37 °C before initiating the reaction by adding NADPH-generating system (45 µL) into the microsomal suspension. The effects of verapamil or ketoconazole (a positive CYP3A4 inhibitor) on the metabolic stability of oridonin were investigated by adding 10 µM of verapamil or ketoconazole (12 µL, final concentration of 0.1 µM) to rat liver microsomes and preincubating them for 30 min at 37 °C, followed by the addition of NADPH-generating system. Aliquots of 100 µL were collected from the reaction volumes at 0.083, 0.167, 0.33, 0.5, 1, 2, 4, 8, 12, 24 and 36 h after the addition of oridonin, and 200 µL ice-cold acetonitrile containing esculin was added to terminate the reaction. All the experiments were performed in triplicate. The subsequent sample preparation method was same as the method of plasma sample preparation, and the concentration of oridonin was determined by LC-MS.\nThe in vitro half-life (t1/2) was obtained using the equation: t1/2=0.693/k; V (µL/mg)=volume of incubation (µL)/protein in the incubation (mg); Intrinsic clearance (Clint) (µL/min/mg protein)=V × 0.693/t1/2."}, "[2]": {"design": "method as in Xu et al. [2006]", "settings": "oral administration in rats; ref Xu et al. [2006]; cited from earlier work"}, "[3]": {"test": "In vivo pharmacokinetic study of oridonin in rats with or without verapamil pre-treatment", "settings": "Sprague-Dawley, rat, plasma, po, intragastrical oridonin (40 mg/kg; n = 6, mean ± SD); for CL/F: read-out: CLz/F (oral clearance) (converted)", "method": "To evaluate the effects of verapamil on the pharmacokinetics of oridonin, the rats were divided into two groups of six animals each. The pre-treatment group was pre-treated with verapamil at a dose of 10 mg/kg/day (dissolved directly in normal saline containing 0.5% methylcellulose at a concentration of 2 mg/mL) for 7 days before the administration of oridonin. […] The dose of verapamil and oridonin were based on previous reports (Xu et al. [2006]; Zhu et al. [2017]; Huang et al. [2018]; Zhou et al. [2019]). The control group was without the pre-treatment of verapamil before the oral administration of oridonin. Blood samples (250 µL) were collected into heparinized tubes via the oculi chorioideae vein at 0.083, 0.33, 0.5, 1, 2, 4, 6, 8, 10, 12, 24 and 36 h after the oral administration of oridonin. The blood samples were centrifuged at 3500 rpm for 5 min. The plasma samples that were obtained were stored at −40 °C until analysis.\nTo 100 µL aliquot of a plasma sample, 20 µL methanol and 180 µL internal standard methanol solution (2 ng/mL) were added and vortexed for 60 s to mix in a 1.5 mL polypropylene tube, and were centrifuged at 12,000 rpm for 10 min. The supernatant was removed into an injection vial, and a 3 µL aliquot was injected into the LC-MS/MS system for analysis.\nThe determination of oridonin was performed on Agilent 1290 series liquid chromatography system and an Agilent 6470 triple-quadruple mass spectrometer (Palo Alto, CA, USA). The HPLC/MS conditions and sample preparation were basically according to a validated HPLC method described before (Jin et al. [2015]; Zhang et al. [2019]). The chromatographic analysis of oridonin was performed on a Waters X-Bridge C18 column (3.0 × 100 mm, i.d.; 3.5 µm, USA) at room temperature (25 °C). The mobile phase was water (containing 0.1% formic acid) and acetonitrile (30:70, v:v) with isocratic elution at a flow rate of 0.2 mL/min, and the analysis time was 4 min.\nThe mass scan mode was positive MRM mode. The precursor ion and product ion are m/z 365.3→347.3 for oridonin and m/z 252.1→155.9 for IS. The collision energy for oridonin and IS were 30 and 20 eV, respectively. The MS/MS conditions were optimized as follows: fragmentor, 110 V; capillary voltage, 3.5 kV; nozzle voltage, 500 V; nebulizer gas pressure (N2), 40 psig; drying gas flow (N2), 10 L/min; gas temperature, 350 °C; sheath gas temperature, 400 °C; sheath gas flow, 11 L/min.\nThe pharmacokinetic parameters, including the area under the plasma concentration-time curve (AUC), maximal plasma concentration (Cmax), the time for the maximal plasma concentration (Tmax), and the mean residence time (MRT) were calculated using the DAS 3.0 pharmacokinetic software (Chinese Pharmacological Association, Anhui, China)."}, "[4]": {"test": "Bidirectional transport across Caco-2 cell transwell model", "format": "in vitro ADME", "settings": "human, Caco-2, oridonin 2 µM; for Papp B→A at 2 µM: basolateral to apical", "method": "(§1) The Caco-2 cell line was obtained from the American Type Culture Collection (Manassas, VA, USA), and it was performed according to the previous study (Liu et al. [2018]). The Caco-2 cells were cultured in DMEM high glucose medium containing 15% FBS, 1% NEAA and 100 U/mL penicillin and 100 µg/mL streptomycin. The cells were cultured at 37 °C with 5% CO2. For transport studies, the cells at passage 40 were seeded on transwell polycarbonate insert filters (1.12 cm^2 surface, 0.4 µm pore size, 12 mm diameter; Corning Costar Corporation, MA, USA) in 12-well plates at a density of 1 × 10^5 cells/cm^2. Cells were allowed to grow for 21 days. For the first seven days, the medium was replaced every two days, and then daily. The transepithelial electrical resistance (TEER) of the monolayer cells was measured using Millicell ERS-2 (Millipore Corporation, Billerica, MA, USA), and TEER exceeding 400 Ω·cm^2 was used for the flux experiment. The integrity of the Caco-2 monolayers was confirmed by the paracellular flux of Lucifer yellow, which was less than 1% per hour. The alkaline phosphatase activity was validated using an Alkaline Phosphatase Assay Kit. The qualified monolayers were used for transport studies. Before the transport experiments, the cell monolayers were rinsed twice using warm (37 °C) HBSS, then the cells were incubated at 37 °C for 20 min. After preincubation, the cell monolayers were incubated with oridonin in fresh incubation medium added on either the apical or basolateral side for the indicated times at 37 °C. […] The permeability of oridonin (2 µM) in all of the above condition s for both directions, i.e., from the apical (AP) side to the basolateral (BL) side and from the BL side to the AP side, was measured after incubation for 30, 60, 90 and 120 min at 37 °C. In addition, the efflux activity of P-gp was validated using a typical P-gp substrate digoxin (25 µM). The apparent permeability coefficient (Papp) was calculated using the equation of Artursson and Karlsson: Papp=(ΔQ/Δt)×[1/(A×C0)] where Papp is the apparent permeability coefficient (cm/s), ΔQ/Δt (µmol/s) is the rate at which the compound appears in the receiver chamber, C0 (µmol/L) is the initial concentration of the compound in the donor chamber and A (cm^2) represents the surface area of the cell monolayer. Data were collected from three separate experiments, and each was performed in triplicate. In addition, the efflux activity of P-gp was validated using a typical P-gp substrate digoxin (25 µM)."}, "Caco-2 cell monolayers": {"system": "Caco-2 cell monolayers", "test": "Bidirectional transport across Caco-2 cell transwell model", "format": "in vitro ADME", "settings": "Caco-2, digoxin 25 µM, verapamil present", "method": "as §1"}, "P-gp": {"system": "P-gp", "test": "Bidirectional transport across Caco-2 cell transwell model", "format": "in vitro ADME", "settings": "human; Caco-2, digoxin 25 µM, P-gp substrate validation, without verapamil", "method": "as §1"}, "[5]": {"settings": "pre-treatment of verapamil (10 mg/kg/day for 7 days)"}, "[6]": {"settings": "with verapamil (concentration not stated), verapamil present"}},
  "note": "Where two headings read alike, the source gives them in different places.",
  "data": [
    {"compound": "C=C1C(=O)[C@]23[C@H](O)[C@H]1CC[C@H]2[C@@]12CO[C@]3(O)[C@@H](O)[C@@H]1C(C)(C)CC[C@@H]2O", "note": "[oridonin]", "values": [
      {"measurement": "microsomal CLint at 1 µM", "setting": "[1]; pH 7.4, oridonin alone", "result": "40.1 ± 2.5", "unit": "µL/min/mg"},
      {"measurement": "half-life at 1 µM", "setting": "[1]; pH 7.4, oridonin alone", "result": "0.577 ± 0.045", "unit": "h"},
      {"measurement": "half-life at 1 µM", "setting": "[1]; pH 7.4, with verapamil 0.1 µM, in the presence of verapamil", "result": "0.64 ± 0.055", "unit": "h"},
      {"measurement": "microsomal CLint at 1 µM", "setting": "[1]; pH 7.4, with verapamil 0.1 µM, verapamil present", "result": "36.1 ± 3.7", "unit": "µL/min/mg"},
      {"measurement": "bioavailability (available after oral administration)", "setting": "[2]", "result": 11, "unit": "%"},
      {"measurement": "Cmax", "setting": "[3]; 40 mg/kg, control without verapamil", "result": "147 ± 10.2", "unit": "ng/mL"},
      {"measurement": "AUC(0-t)", "setting": "[3]; control without verapamil", "result": "1310 ± 290", "unit": "ng·h/mL"},
      {"measurement": "MRT", "setting": "[3]; control without verapamil", "result": "9.25 ± 1.1", "unit": "h"},
      {"measurement": "Tmax", "setting": "[3]; control without verapamil", "result": "1 ± 0.12", "unit": "h"},
      {"measurement": "half-life", "setting": "[3]; control without verapamil", "result": "10.9 ± 4.38", "unit": "h"},
      {"measurement": "CL/F", "setting": "[3]; control without verapamil", "result": 245, "unit": "mL/min/kg"},
      {"measurement": "AUC(0-t)", "setting": "[3]; [5]", "result": "2230 ± 530", "unit": "ng·h/mL"},
      {"measurement": "Cmax", "setting": "[3]; [5]", "result": "194 ± 10.5", "unit": "ng/mL"},
      {"measurement": "MRT", "setting": "[3]; [5]", "result": "11.5 ± 1.5", "unit": "h"},
      {"measurement": "Tmax", "setting": "[3]; [5]", "result": "1 ± 0.18", "unit": "h"},
      {"measurement": "half-life", "setting": "[3]; [5]", "result": "13.7 ± 4.81", "unit": "h"},
      {"measurement": "CL/F", "setting": "[3]; [5]", "result": 135, "unit": "mL/min/kg"},
      {"measurement": "efflux ratio at 2 µM", "setting": "[4]; pH 7.4, without verapamil", "result": 1.67},
      {"measurement": "Papp B→A at 2 µM", "setting": "[4]; [6]", "result": "0.222 ± 0.032", "unit": "×10⁻⁶ cm/s"},
      {"measurement": "efflux ratio at 2 µM", "setting": "[4]; [6]", "result": 1.15},
      {"measurement": "Papp A→B at 2 µM", "setting": "[4]; apical to basolateral, HBSS pH 7.4, 37 °C, without verapamil", "result": "0.191 ± 0.015", "unit": "×10⁻⁶ cm/s"},
      {"measurement": "Papp B→A at 2 µM", "setting": "[4]; HBSS pH 7.4, 37 °C, without verapamil", "result": "0.32 ± 0.016", "unit": "×10⁻⁶ cm/s"}
    ]},
    {"compound": "C[C@H]1O[C@@H](O[C@H]2[C@@H](O)C[C@H](O[C@H]3[C@@H](O)C[C@H](O[C@H]4CC[C@@]5(C)[C@H](CC[C@@H]6[C@@H]5C[C@@H](O)[C@]5(C)[C@@H](C7=CC(=O)OC7)CC[C@]65O)C4)O[C@@H]3C)O[C@@H]2C)C[C@H](O)[C@@H]1O", "note": "[digoxin]", "values": [
      {"measurement": "efflux ratio", "setting": "Caco-2 cell monolayers", "result": "abrogated"},
      {"measurement": "efflux ratio at 25 µM", "setting": "P-gp", "result": 10.1}
    ]}
  ]
}
